Measurements: ChEMBL document CHEMBL4196052, “Rational modifications on a benzylidene-acrylohydrazide antiviral scaffold, synthesis and evaluation of bioactivity against Chikungunya virus” (Eur J Med Chem, 2018)

Tests used:
Chikungunya virus [1] = assay: Antiviral activity against Chikungunya virus Indian Ocean strain 899 infected in African green monkey Vero cells assessed as inhibition of viral-induced cytopathic effect measured on day 5 post infection by MTS/PMS assay; type: functional, organism-based, Indian Ocean 899; details: for EC50 / EC90: Chikungunya virus, Indian Ocean 899, Vero, 120 h
Chikungunya virus [2] = assay: Antiviral activity against Chikungunya virus Indian Ocean strain 899 infected in African green monkey Vero cells assessed as inhibition of viral-induced cytopathic effect by measuring concentration required for maximum activity measured on day 5 post infection by MTS/PMS assay; type: functional, Indian Ocean 899

SMILES: Cc1ccc(NC(=O)N/C=C/c2ccccc2)cc1
- Imax (Chikungunya virus [1]): 21%
- EC50 (Chikungunya virus [1]): > 396 µM
- EC90 (Chikungunya virus [1]): > 396 µM
- Activity (Chikungunya virus [2]): 396 µM

SMILES: CCOc1ccc(/C=N/NC(=O)/C=C/c2ccc(C(C)(C)C)cc2)cc1OCC
- Imax (Chikungunya virus [1]): 100%
- EC90 (Chikungunya virus [1]): 11 µM
- Activity (Chikungunya virus [2]): 12.5 µM

SMILES: COc1ccc(CNC(=O)N/C=C/c2ccccc2)cc1OC
- Imax (Chikungunya virus [1]): 13%
- EC50 (Chikungunya virus [1]): > 320 µM
- EC90 (Chikungunya virus [1]): > 320 µM
- Activity (Chikungunya virus [2]): 320 µM

SMILES: CCOc1ccc(/C=N/NC(=O)c2cc3ccccc3[nH]2)cc1OCC
- Imax (Chikungunya virus [1]): 50%
- EC50 (Chikungunya virus [1]): > 213 µM
- EC90 (Chikungunya virus [1]): > 213 µM
- Activity (Chikungunya virus [2]): 213 µM

SMILES: Cc1ccc(/C=N/NC(=O)c2cnc3ccccc3c2)cc1
- Imax (Chikungunya virus [1]): 27%
- EC50 (Chikungunya virus [1]): > 346 µM
- EC90 (Chikungunya virus [1]): > 346 µM
- Activity (Chikungunya virus [2]): 346 µM

SMILES: COc1ccc(CNC(=O)N/C=C/c2ccc(C(C)(C)C)cc2)cc1OC
- Imax (Chikungunya virus [1]): 100%
- EC50 (Chikungunya virus [1]): 11.6 µM
- EC90 (Chikungunya virus [1]): 14.8 µM
- Activity (Chikungunya virus [2]): 17 µM

SMILES: O=C(N/N=C/c1ccc(O)cc1)c1cnc2ccccc2c1
- Imax (Chikungunya virus [1]): <1%
- EC50 (Chikungunya virus [1]): > 343 µM
- EC90 (Chikungunya virus [1]): > 343 µM
- Activity (Chikungunya virus [2]): 343 µM

SMILES: CCOc1ccc(/C=N/NC(=O)c2ccc3ccccc3n2)cc1OCC
- Imax (Chikungunya virus [1]): 8%
- EC50 (Chikungunya virus [1]): > 275 µM
- EC90 (Chikungunya virus [1]): > 275 µM
- Activity (Chikungunya virus [2]): 275 µM

SMILES: Cc1ccc(-c2nnc(/C=C/c3ccc(C(C)(C)C)cc3)o2)cc1
- Imax (Chikungunya virus [1]): 8%
- EC50 (Chikungunya virus [1]): > 157 µM
- EC90 (Chikungunya virus [1]): > 157 µM
- Activity (Chikungunya virus [2]): 157 µM

SMILES: C/C(=N\NC(=O)c1ccc2ccccc2c1)c1ccc(C2CCCCC2)cc1
- Imax (Chikungunya virus [1]): 14%
- EC50 (Chikungunya virus [1]): > 270 µM
- EC90 (Chikungunya virus [1]): > 270 µM
- Activity (Chikungunya virus [2]): 270 µM

SMILES: CC(C)(C)c1ccc(/C=C/NC(=O)Nc2ccc(O)cc2)cc1
- Imax (Chikungunya virus [1]): 100%
- EC50 (Chikungunya virus [1]): 9.1 µM
- EC90 (Chikungunya virus [1]): 11.9 µM
- Activity (Chikungunya virus [2]): 4.1 µM

SMILES: O=C(N/N=C/c1ccc(O)cc1)c1nc2ccccc2[nH]1
- Imax (Chikungunya virus [1]): 33%
- EC50 (Chikungunya virus [1]): > 357 µM
- EC90 (Chikungunya virus [1]): > 357 µM
- Activity (Chikungunya virus [2]): 357 µM

SMILES: CCOc1ccc(C(=O)NNC(=O)/C=C/c2ccc(C(C)(C)C)cc2)cc1OCC
- Imax (Chikungunya virus [1]): 11%
- EC50 (Chikungunya virus [1]): > 244 µM
- EC90 (Chikungunya virus [1]): > 244 µM
- Activity (Chikungunya virus [2]): 6.3 µM

SMILES: Cc1ccc(/C=N/NC(=O)c2nc3ccccc3[nH]2)cc1
- Imax (Chikungunya virus [1]): 14%
- EC50 (Chikungunya virus [1]): > 120 µM
- EC90 (Chikungunya virus [1]): > 120 µM
- Activity (Chikungunya virus [2]): 120 µM

SMILES: Cc1ccc(/C=N/NC(=S)NCCc2ccccc2)cc1
- Imax (Chikungunya virus [1]): 12%
- EC50 (Chikungunya virus [1]): > 336 µM
- EC90 (Chikungunya virus [1]): > 336 µM
- Activity (Chikungunya virus [2]): 56 µM

SMILES: C/C(=N\NC(=O)/C=C/c1ccc(C(F)(F)F)cc1)c1ccc(C2CCCCC2)cc1
- Imax (Chikungunya virus [1]): 12%
- EC50 (Chikungunya virus [1]): > 241 µM
- EC90 (Chikungunya virus [1]): > 241 µM
- Activity (Chikungunya virus [2]): 241 µM

SMILES: CCOc1ccc(/C=N/NC(=O)c2nc3ccccc3[nH]2)cc1OCC
- Imax (Chikungunya virus [1]): 6%
- EC50 (Chikungunya virus [1]): > 284 µM
- EC90 (Chikungunya virus [1]): > 284 µM
- Activity (Chikungunya virus [2]): 284 µM

SMILES: COc1ccc(/C=C/C(=O)N/N=C/c2ccc(C)cc2)cc1
- Imax (Chikungunya virus [1]): 13%
- EC50 (Chikungunya virus [1]): > 112 µM
- EC90 (Chikungunya virus [1]): > 112 µM
- Activity (Chikungunya virus [2]): 112 µM

SMILES: CCOc1ccc(/C=N/NC(=O)/C=C/c2ccc(C(C)C)cc2)cc1OCC
- Imax (Chikungunya virus [1]): 30%
- EC50 (Chikungunya virus [1]): > 29.2 µM
- EC90 (Chikungunya virus [1]): > 29.2 µM
- Activity (Chikungunya virus [2]): 8 µM

SMILES: O=C(N/N=C/c1ccc(O)cc1)c1ccc2ccccc2n1
- Imax (Chikungunya virus [1]): <1%
- EC50 (Chikungunya virus [1]): > 343 µM
- EC90 (Chikungunya virus [1]): > 343 µM
- Activity (Chikungunya virus [2]): 343 µM

SMILES: C/C(=N\NC(=O)c1ccc2ccccc2n1)c1ccc(C2CCCCC2)cc1
- Imax (Chikungunya virus [1]): 13%
- EC50 (Chikungunya virus [1]): > 269 µM
- EC90 (Chikungunya virus [1]): > 269 µM
- Activity (Chikungunya virus [2]): 269 µM

SMILES: CCOc1ccc(/C=N/NC(=O)c2cnc3ccccc3c2)cc1OCC
- Imax (Chikungunya virus [1]): 3%
- EC50 (Chikungunya virus [1]): > 275 µM
- EC90 (Chikungunya virus [1]): > 275 µM
- Activity (Chikungunya virus [2]): 275 µM

SMILES: Cc1ccc(-c2nnc(CCc3ccc(C(C)(C)C)cc3)o2)cc1
- Imax (Chikungunya virus [1]): 100%
- EC50 (Chikungunya virus [1]): 17.2 µM
- EC90 (Chikungunya virus [1]): 21.7 µM
- Activity (Chikungunya virus [2]): 26 µM

SMILES: Cc1ccc(CNC(=O)N/C=C/c2ccccc2)cc1
- Imax (Chikungunya virus [1]): 18%
- EC50 (Chikungunya virus [1]): > 376 µM
- EC90 (Chikungunya virus [1]): > 376 µM
- Activity (Chikungunya virus [2]): 376 µM

SMILES: C/C(=N\NC(=O)c1cnc2ccccc2c1)c1ccc(C2CCCCC2)cc1
- Imax (Chikungunya virus [1]): 19%
- EC50 (Chikungunya virus [1]): > 202 µM
- EC90 (Chikungunya virus [1]): > 202 µM
- Activity (Chikungunya virus [2]): 202 µM

SMILES: Cc1ccc(/C=N/NC(=O)c2ccc3ccccc3n2)cc1
- Imax (Chikungunya virus [1]): 3%
- EC50 (Chikungunya virus [1]): > 346 µM
- EC90 (Chikungunya virus [1]): > 346 µM
- Activity (Chikungunya virus [2]): 346 µM

SMILES: C/C(=N\NC(=O)/C=C/c1ccc(-c2ccccc2)cc1)c1ccc(C2CCCCC2)cc1
- Imax (Chikungunya virus [1]): 15%
- EC50 (Chikungunya virus [1]): > 29.6 µM
- EC90 (Chikungunya virus [1]): > 29.6 µM
- Activity (Chikungunya virus [2]): 30 µM

SMILES: O=C(N/N=C/c1ccc(O)cc1)c1ccc2ccccc2c1
- Imax (Chikungunya virus [1]): 2%
- EC50 (Chikungunya virus [1]): > 344 µM
- EC90 (Chikungunya virus [1]): > 344 µM
- Activity (Chikungunya virus [2]): 344 µM

SMILES: C/C(=N\NC(=O)/C=C/c1ccc(C(C)C)cc1)c1ccc(C2CCCCC2)cc1
- Imax (Chikungunya virus [1]): 13%
- EC50 (Chikungunya virus [1]): > 193 µM
- EC90 (Chikungunya virus [1]): > 193 µM
- Activity (Chikungunya virus [2]): 193 µM

SMILES: CCOc1ccc(/C=N/NC(=O)/C=C/c2ccc(OC)cc2)cc1OCC
- Imax (Chikungunya virus [1]): 8%
- EC50 (Chikungunya virus [1]): > 271 µM
- EC90 (Chikungunya virus [1]): > 271 µM
- Activity (Chikungunya virus [2]): 45 µM

SMILES: Cc1ccc(C(=O)NNC(=O)/C=C/c2ccc(C(C)(C)C)cc2)cc1
- Imax (Chikungunya virus [1]): 9%
- EC50 (Chikungunya virus [1]): > 99.1 µM
- EC90 (Chikungunya virus [1]): > 99.1 µM
- Activity (Chikungunya virus [2]): 99.1 µM

SMILES: C/C(=N\NC(=O)c1cc2ccccc2[nH]1)c1ccc(C2CCCCC2)cc1
- Imax (Chikungunya virus [1]): 41%
- EC50 (Chikungunya virus [1]): > 209 µM
- EC90 (Chikungunya virus [1]): > 209 µM
- Activity (Chikungunya virus [2]): 209 µM

SMILES: CC(C)(C)c1ccc(/C=C/NC(=O)NCc2ccccc2)cc1
- Imax (Chikungunya virus [1]): 8%
- EC50 (Chikungunya virus [1]): > 107 µM
- EC90 (Chikungunya virus [1]): > 107 µM
- Activity (Chikungunya virus [2]): 107 µM

SMILES: Cc1ccc(NC(=O)N/C=C/c2ccc(C(C)(C)C)cc2)cc1
- Imax (Chikungunya virus [1]): 16%
- EC50 (Chikungunya virus [1]): > 61 µM
- EC90 (Chikungunya virus [1]): > 61 µM
- Activity (Chikungunya virus [2]): 61 µM

SMILES: Cc1ccc(/C=N/NC(=O)c2ccc3ccccc3c2)cc1
- Imax (Chikungunya virus [1]): 10%
- EC50 (Chikungunya virus [1]): > 347 µM
- EC90 (Chikungunya virus [1]): > 347 µM
- Activity (Chikungunya virus [2]): 347 µM

SMILES: Cc1ccc(CNC(=O)N/C=C/c2ccc(C(C)(C)C)cc2)cc1
- Imax (Chikungunya virus [1]): 10%
- EC50 (Chikungunya virus [1]): > 103 µM
- EC90 (Chikungunya virus [1]): > 103 µM
- Activity (Chikungunya virus [2]): 103 µM

SMILES: CCOc1ccc(/C=N/NC(=O)c2ccc3ccccc3c2)cc1OCC
- Imax (Chikungunya virus [1]): 24%
- EC50 (Chikungunya virus [1]): > 276 µM
- EC90 (Chikungunya virus [1]): > 276 µM
- Activity (Chikungunya virus [2]): 276 µM

SMILES: Cc1ccc(/C=N/NC(=O)c2cc3ccccc3[nH]2)cc1
- Imax (Chikungunya virus [1]): 45%
- EC50 (Chikungunya virus [1]): > 361 µM
- EC90 (Chikungunya virus [1]): > 361 µM
- Activity (Chikungunya virus [2]): 361 µM

SMILES: COc1ccc(/C=C/C(=O)N/N=C(\C)c2ccc(C3CCCCC3)cc2)cc1
- Imax (Chikungunya virus [1]): 9%
- EC50 (Chikungunya virus [1]): > 87.7 µM
- EC90 (Chikungunya virus [1]): > 87.7 µM
- Activity (Chikungunya virus [2]): 66 µM

SMILES: O=C(N/N=C/c1ccc(O)cc1)c1cc2ccccc2[nH]1
- Imax (Chikungunya virus [1]): 51%
- EC50 (Chikungunya virus [1]): 348 µM
- EC90 (Chikungunya virus [1]): > 358 µM
- Activity (Chikungunya virus [2]): 358 µM

SMILES: O=C(N/C=C/c1ccccc1)Nc1ccc(O)cc1
- Imax (Chikungunya virus [1]): 2%
- EC50 (Chikungunya virus [1]): > 393 µM
- EC90 (Chikungunya virus [1]): > 393 µM
- Activity (Chikungunya virus [2]): 197 µM

SMILES: CCOc1ccc(/C=N/NC(=O)/C=C/c2ccc(-c3ccccc3)cc2)cc1OCC
- Imax (Chikungunya virus [1]): 47%
- EC50 (Chikungunya virus [1]): > 80.2 µM
- EC90 (Chikungunya virus [1]): > 80.2 µM
- Activity (Chikungunya virus [2]): 120 µM

SMILES: CCOc1ccc(-c2nnc(/C=C/c3ccc(C(C)(C)C)cc3)o2)cc1OCC
- Imax (Chikungunya virus [1]): 100%
- EC50 (Chikungunya virus [1]): 29 µM
- EC90 (Chikungunya virus [1]): 88.2 µM
- Activity (Chikungunya virus [2]): 127.4 µM

SMILES: CCOc1ccc(/C=N/NC(=O)N/C=C/c2ccc(C(C)(C)C)cc2)cc1OCC
- Imax (Chikungunya virus [1]): 49%
- EC50 (Chikungunya virus [1]): > 100 µM
- EC90 (Chikungunya virus [1]): > 100 µM
- Activity (Chikungunya virus [2]): 100 µM

SMILES: CCN(CC)CCCC(C)Nc1ccnc2cc(Cl)ccc12 (stereo unspecified) [CHLOROQUINE]
- EC90 (Chikungunya virus [1]): 21 µM
